Each structure is given as a SMILES string. A value given as a limit tells only on which side of the number the result lay.

For one test, the target named is CRBN-DDB1 (Homo sapiens (Human), UniProt Q96SW2). Kind of test: CRBN HTRF assay (Cy5-Thalidomide probe displacement). The format is binding. The note with it: CRBN-DDB1 2.5 nM, Cy5-Thalidomide 100 nM, 30 min; Ki from geometric mean IC50 by Cheng-Prusoff. The protocol:
Compound activity was monitored in a Homogenous Time-Resolved Fluorescence (HTRF) assay using 1-[5-({2-[2-(2-{[2-(2,6-dioxopiperidin-3-yl)-1,3-dioxo-2,3-dihydro-1H-isoindol-4-yl]oxy}acetamido)ethoxy]ethyl}carbamoyl)pentyl]-3,3-dimethyl-2-[(1E,3E)-5-[(2E)-1,3,3-trimethyl-5-sulfo-2,3-dihydro-1H-indol-2-ylidene]penta-1,3-dien-1-yl]-3H-indol-1-ium-5-sulfonate as a fluorescent probe. Biochemical assays were conducted in Greiner white 384 well HiBase plates (Cat. No 784075-25) in 10 μL total volume. A one pot detection solution of CRBN-DDB1 (2.5 nM), Anti-His Terbium Cryptate Gold (1×, PerkinElmer Cat. #: 61HI2TLB), and Cy5-Thalidomide (100 nM, Tenova Cat.: T52461) was prepared in 20 mM HEPES, 20 mM NaCl, 0.2 mM TCEP, 0.2 mM EDTA, and 0.005% Tween20 was dispensed to each assay plate. Compounds were stored in dry, ambient temperatures at 10 mM. A 10-point, 1:3 dilution series was prepared from 10 mM stock concentrations in Echo-compatible LDV plates. 10 nL of each compound dilution series was dispensed into assays wells using an Echo 650 (Labcyte inc. USA). 10 nL of 10 mM Lenalidomide was transferred into the active-control wells for the assay and 10 nL of DMSO was transferred into the neutral-control wells. The assay was then allowed to incubate for 30 min at ambient temperature after transferring compound. Plate measurements were taken on a Pherastar FSX (BMG Labtech, Germany) using the HTRF Red filter (Ex. 337 nm, em1: 620 nm, em2: 665 nm) (Flashes: 50, Integration time: 60-400 us, Z-height: 10 mm, Ratio-multiplier: 10,000). The HTRF signal was then subsequently normalized to the neutral and active controls. Analysis and IC50 values were derived using KNIME analytics (KNIME Zurich) transformation and fitting within Collaborative Drug Discovery (Collaborative Drug Discovery USA). Ki was derived from the geometric mean of the IC50 values using the Cheng-Prustoff transformation.

A further test concerns the target CDK2 (Homo sapiens (Human), UniProt P24941). Nature of the test: CDK2 NanoBiT assay (HiBiT-tagged CDK2 degradation). The format is cell-based. The note with it: C-terminal HiBiT tag on CDK2, LgBiT, 24 hours. The protocol:
Example 145. NanoBiT Assay
A HEK293 clonal line with a CRISPR knock-in C-terminal HiBiT tag on CDK2 and stably expressing LgBiT protein was obtained from Promega (Madison, WI). Cells were plated at 5000 cells per well using Multiflo (BioTek) in 384-well white solid bottom plates (Corning, 3570BC) in 25 ul volume in DMEM media (DMEM, high glucose, HEPES, no phenol red (ThermoFisher Scientific, 21063029)) containing 10% FBS (Corning, 35-075-CV), 1% Peniciliin/Streptomycin ((ThermoFisher Scientific, 15140-122), and 1% Endurazine (Nano-Glo Endurazine Live Cell Substrate (Promega, N2571)). Cells were incubated for 16 hours at 37 C, 5% CO2. 75 nL of a compound at 30 μM were dosed into the plate using an Echo® 650 liquid handler (Labcyte). Cells were incubated at 37° C., 5% CO2 for 24 hours and then signal was read on a Pherastar FSX using “LUM plus” optic module.
Analysis was performed in Scinamic (Scinamic, Cambridge, MA). Luminescence response (R) was calculated by the formula: response=100*(S−N)/(P−N) where S is the signal of the well, N and P the mean negative and positive control values respectively of the same plate. The luminescence response was then fitted in Scinamic using a 3-parameter agonist logistic fit (hillslope=1, EC50>0, top/bottom unconstrained).

Chain of CRBN-DDB1 (Q96SW2 whole entry): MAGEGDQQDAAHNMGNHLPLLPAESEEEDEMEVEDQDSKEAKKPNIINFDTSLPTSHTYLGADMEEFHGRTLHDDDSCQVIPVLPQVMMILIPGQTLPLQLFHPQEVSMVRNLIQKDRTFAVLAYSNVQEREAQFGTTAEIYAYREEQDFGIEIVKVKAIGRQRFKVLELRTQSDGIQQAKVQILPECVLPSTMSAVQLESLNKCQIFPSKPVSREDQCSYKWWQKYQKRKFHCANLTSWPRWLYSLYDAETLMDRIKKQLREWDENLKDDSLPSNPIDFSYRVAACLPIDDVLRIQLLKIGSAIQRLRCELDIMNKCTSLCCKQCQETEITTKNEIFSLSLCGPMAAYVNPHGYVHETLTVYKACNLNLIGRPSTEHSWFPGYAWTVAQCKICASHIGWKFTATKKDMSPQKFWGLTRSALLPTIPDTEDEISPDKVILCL
Chain of CRBN-DDB1 (Q16531 whole entry partner): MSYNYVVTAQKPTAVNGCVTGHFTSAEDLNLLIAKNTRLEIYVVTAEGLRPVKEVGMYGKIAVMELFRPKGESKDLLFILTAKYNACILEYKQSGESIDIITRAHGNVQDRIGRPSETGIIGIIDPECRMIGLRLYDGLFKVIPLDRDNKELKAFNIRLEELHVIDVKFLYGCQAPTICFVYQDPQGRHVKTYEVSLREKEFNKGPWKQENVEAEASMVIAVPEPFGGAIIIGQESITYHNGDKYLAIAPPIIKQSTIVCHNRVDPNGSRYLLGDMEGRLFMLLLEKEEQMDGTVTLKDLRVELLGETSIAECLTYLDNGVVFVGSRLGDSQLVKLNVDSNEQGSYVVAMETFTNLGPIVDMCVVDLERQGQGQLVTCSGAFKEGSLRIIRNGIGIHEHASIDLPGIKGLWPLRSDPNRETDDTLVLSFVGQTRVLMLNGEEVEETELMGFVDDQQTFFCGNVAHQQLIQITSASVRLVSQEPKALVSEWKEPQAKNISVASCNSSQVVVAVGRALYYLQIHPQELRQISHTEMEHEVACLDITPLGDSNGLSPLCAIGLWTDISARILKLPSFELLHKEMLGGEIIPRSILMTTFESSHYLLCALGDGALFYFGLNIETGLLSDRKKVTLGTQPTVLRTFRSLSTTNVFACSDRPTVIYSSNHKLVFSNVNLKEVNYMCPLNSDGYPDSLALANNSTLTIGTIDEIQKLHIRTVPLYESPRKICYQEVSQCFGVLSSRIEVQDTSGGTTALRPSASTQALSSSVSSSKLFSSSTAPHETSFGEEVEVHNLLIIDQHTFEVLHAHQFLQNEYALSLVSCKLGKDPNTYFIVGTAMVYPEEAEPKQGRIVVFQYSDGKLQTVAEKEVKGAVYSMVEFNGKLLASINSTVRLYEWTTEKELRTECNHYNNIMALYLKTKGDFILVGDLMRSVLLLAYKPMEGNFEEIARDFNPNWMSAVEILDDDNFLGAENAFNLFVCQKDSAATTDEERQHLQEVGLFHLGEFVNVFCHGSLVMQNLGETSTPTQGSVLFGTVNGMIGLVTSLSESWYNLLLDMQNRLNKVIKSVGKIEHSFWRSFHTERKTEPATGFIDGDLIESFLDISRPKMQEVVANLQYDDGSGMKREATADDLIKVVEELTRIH

`Cc1ccc(N(C)C(=O)C23CC(OC(=O)NC4CN(c5cc(F)c(C6CCC(=O)NC6=O)c(F)c5)C4)(C2)C3)c(C)c1` (stereo not shown) [Compound 117, 3-((2,4-dimethylphenyl)(methyl)carbamoyl)bicyclo[1.1.1]pentan-1-yl (1-(4-(2,6-dioxopiperidin-3-yl)-3,5-difluorophenyl)azetidin-3-yl)carbamate] had a Ki on CRBN-DDB1 not above 100 nM. The compound further gave a Dmax on CDK2 (HEK293, HEK293 clonal line) of 10 to 50%.
As to `COc1c(N2CC(C)(Nc3nnc(C4CC5(CCC5)C4)o3)C2)ccc(C2CCC(=O)NC2=O)c1F` (stereo not shown) [Compound 121, 3-(2-fluoro-3-methoxy-4-(3-methyl-3-((5-(spiro[3.3]heptan-2-yl)-1,3,4-oxadiazol-2-yl)amino)azetidin-1-yl)phenyl)piperidine-2,6-dione], the Ki at CRBN-DDB1 is not above 100 nM. The compound further had a Dmax at CDK2 (HEK293, HEK293 clonal line) of 10 to 50%.
On CRBN-DDB1, `O=C1CCC(c2c(F)cc(N3CC(NC(=O)OCC#CC4CC4)C3)cc2F)C(=O)N1` (stereo not shown) [Compound 84, 3-cyclopropylprop-2-yn-1-yl (1-(4-(2,6-dioxopiperidin-3-yl)-3,5-difluorophenyl)azetidin-3-yl)carbamate] displayed a Ki not above 100 nM. Also, the Dmax at CDK2 (HEK293, HEK293 clonal line) was in the range of 10 to 50%.
Take `O=C1CCC(c2c(F)cc(N3C[C@H](NC(=O)OCC4CC5(CCC5)C4)CC3=O)cc2F)C(=O)N1` (stereo partly drawn) [Compound 58, spiro[3.3]heptan-2-ylmethyl ((3R)-1-(4-(2,6-dioxopiperidin-3-yl)-3,5-difluorophenyl)-5-oxopyrrolidin-3-yl)carbamate]: on CRBN-DDB1, the Ki is not above 100 nM. In addition, on CDK2 (HEK293, HEK293 clonal line), the Dmax lay within 50 to 80%.
`O=C1CCC(c2c(F)cc(N3CC(Nc4nnc(-c5cccnc5)o4)C3)cc2F)C(=O)N1` (stereo not shown) [Compound 128, 3-(2,6-difluoro-4-(3-((5-(pyridin-3-yl)-1,3,4-oxadiazol-2-yl)amino)azetidin-1-yl)phenyl)piperidine-2,6-dione] came in with a Ki on CRBN-DDB1 not above 100 nM. On CDK2 (HEK293, HEK293 clonal line), this compound showed a Dmax of 50 to 80%.
As to `O=C1CCC(c2c(F)cc(N3CC[C@H](NC(=O)OCC4CC5(CCC5)C4)C3)cc2F)C(=O)N1` (stereo partly drawn) [Compound 61, spiro[3.3]heptan-2-ylmethyl ((3S)-1-(4-(2,6-dioxopiperidin-3-yl)-3,5-difluorophenyl)pyrrolidin-3-yl)carbamate], the Ki on CRBN-DDB1 was in the range of 100 to 1000 nM. Besides, the Dmax at CDK2 (HEK293, HEK293 clonal line) was more than 80%.
`CC(C)(C)[Si](C)(C)O[C@H]1C[C@@H](OC(=O)NC2CN(c3cc(F)c(C4CCC(=O)NC4=O)c(F)c3)C2)C1` (stereo partly shown) [Compound 48]: the Ki at CRBN-DDB1 is not above 100 nM. Further, the Dmax on CDK2 (HEK293 clonal line) is more than 80%.
In turn, `O=C1CC[C@H](c2c(F)cc(N3CC[C@@H](NC(=O)OCC4CC5(CCC5)C4)C3=O)cc2F)C(=O)N1` [Compound 54, spiro[3.3]heptan-2-ylmethyl ((R)-1-(4-((R)-2,6-dioxopiperidin-3-yl)-3,5-difluorophenyl)-2-oxopyrrolidin-3-yl)carbamate] registered a Ki at CRBN-DDB1 not above 100 nM. Besides, at CDK2 (HEK293, HEK293 clonal line), the Dmax was in the range of 50 to 80%.
`CC1(Nc2nnc(C3CC4(CCC4)C3)o2)CN(c2cc(F)c(C3CCC(=O)NC3=O)c(F)c2)C1` (stereo not shown) [Compound 101, 3-(2,6-difluoro-4-(3-methyl-3-((5-(spiro[3.3]heptan-2-yl)-1,3,4-oxadiazol-2-yl)amino)azetidin-1-yl)phenyl)piperidine-2,6-dione] registered a Ki on CRBN-DDB1 not above 100 nM. This compound yielded a Dmax at CDK2 (HEK293, HEK293 clonal line) of 50 to 80%.
Regarding `O=C1CCC(c2c(F)cc(N3CC(NC(=O)OC4CN(C(=O)c5ccc(F)cc5)C4)C3)cc2F)C(=O)N1` (stereo not shown) [Compound 22, 1-(4-fluorobenzoyl)azetidin-3-yl (1-(4-(2,6-dioxopiperidin-3-yl)-3,5-difluorophenyl)azetidin-3-yl)carbamate], the Ki at CRBN-DDB1 was 100 to 1000 nM. Further, at CDK2 (HEK293, HEK293 clonal line), the Dmax is 50 to 80%.
As to `Cc1ccc(N(C)C(=O)N2CC(OC(=O)NC3CN(c4cc(F)c(C5CCC(=O)NC5=O)c(F)c4)C3)C2)nc1` (stereo not shown) [Compound 110, 1-(methyl (5-methylpyridin-2-yl)carbamoyl) azetidin-3-yl (1-(4-(2,6-dioxopiperidin-3-yl)-3,5-difluorophenyl)azetidin-3-yl) carbamate], at CRBN-DDB1, the inhibition constant Ki is not above 100 nM. On CDK2 (HEK293, HEK293 clonal line), this compound displayed a Dmax of 10 to 50%.
In the case of `O=C1CCC(c2c(F)cc(N3CC(Nc4ncn(C5CC6(CCC6)C5)n4)C3)cc2F)C(=O)N1` (stereo not shown) [Compound 105, 3-(2,6-difluoro-4-(3-((1-(spiro[3.3]heptan-2-yl)-1H-1,2,4-triazol-3-yl)amino)azetidin-1-yl)phenyl)piperidine-2,6-dione], the Ki on CRBN-DDB1 fell in the range of 100 to 1000 nM. Also, the Dmax on CDK2 (HEK293, HEK293 clonal line) was in the range of 50 to 80%.
`O=C1CC[C@@H](c2c(F)cc(N3CC[C@@H](NC(=O)OCC4CC5(CCC5)C4)C3=O)cc2F)C(=O)N1` [Compound 55, spiro[3.3]heptan-2-ylmethyl ((R)-1-(4-((S)-2,6-dioxopiperidin-3-yl)-3,5-difluorophenyl)-2-oxopyrrolidin-3-yl)carbamate] came in with a Ki at CRBN-DDB1 of 100 to 1000 nM. The compound further displayed a Dmax on CDK2 (HEK293, HEK293 clonal line) of 50 to 80%.
For `CN(C)C(=O)N1CC[C@@H](OC(=O)NC2CN(c3cc(F)c(C4CCC(=O)NC4=O)c(F)c3)C2)C1` (stereo partly drawn) [Compound 18, (R)-1-(dimethylcarbamoyl)pyrrolidin-3-yl (1-(4-(2,6-dioxopiperidin-3-yl)-3,5-difluorophenyl)azetidin-3-yl)carbamate], at CRBN-DDB1, the Ki is not above 100 nM. At CDK2 (HEK293, HEK293 clonal line), this compound had a Dmax of 10 to 50%.
In turn, `COc1ccc(C(=O)N2CC(OC(=O)NC3CN(c4cc(F)c(C5CCC(=O)NC5=O)c(F)c4)C3)C2)cc1` (stereo not shown) [Compound 21, 1-(4-methoxybenzoyl)azetidin-3-yl (1-(4-(2,6-dioxopiperidin-3-yl)-3,5-difluorophenyl)azetidin-3-yl)carbamate] registered a Ki at CRBN-DDB1 not above 100 nM. Moreover, the Dmax at CDK2 (HEK293, HEK293 clonal line) lay in the range of 10 to 50%.
The matching figures for `N#Cc1ccc(-c2nnc(NC3CN(c4cc(F)c(C5CCC(=O)NC5=O)c(F)c4)C3)o2)cc1` (stereo not shown) [Compound 95, 4-(5-((1-(4-(2,6-dioxopiperidin-3-yl)-3,5-difluorophenyl)azetidin-3-yl)amino)-1,3,4-oxadiazol-2-yl)benzonitrile]: not above 100 nM and more than 80%.
At CRBN-DDB1, `O=C1CCC(c2ccc(N3CC(NC(=O)OCC4CC5(CCC5)C4)C3)cc2F)C(=O)N1` (stereo not shown) [Compound 59, spiro[3.3]heptan-2-ylmethyl (1-(4-(2,6-dioxopiperidin-3-yl)-3-fluorophenyl)azetidin-3-yl)carbamate] showed a Ki not above 100 nM. For the same compound, the greatest degradation seen (Dmax) on CDK2 (HEK293, HEK293 clonal line) was more than 80%.
As for `C[C@@H]1[C@@H](Nc2nnc(C3CC4(CCC4)C3)o2)CN1c1cc(F)c(C2CCC(=O)NC2=O)c(F)c1` (stereo partly drawn) [Compound 142, 3-(2,6-difluoro-4-((2R,3S)-2-methyl-3-((5-(spiro[3.3]heptan-2-yl)-1,3,4-oxadiazol-2-yl)amino)azetidin-1-yl)phenyl)piperidine-2,6-dione], the Ki on CRBN-DDB1 was not above 100 nM. The compound also displayed a Dmax at CDK2 (HEK293, HEK293 clonal line) of 50 to 80%.
Take `O=C1CCC(c2c(F)cc(N3CC(NC(=O)OC4CN(C(=O)N5CCCCC5)C4)C3)cc2F)C(=O)N1` (stereo not shown) [Compound 36, 1-(piperidine-1-carbonyl)azetidin-3-yl (1-(4-(2,6-dioxopiperidin-3-yl)-3,5-difluorophenyl)azetidin-3-yl)carbamate]: the Ki at CRBN-DDB1 is not above 100 nM. The compound further had a Dmax on CDK2 (HEK293, HEK293 clonal line) of 50 to 80%.
As for `COc1c(N2CC(C)(Nc3nnc(-c4ccc(OC(F)(F)F)cc4)o3)C2)ccc(C2CCC(=O)NC2=O)c1F` (stereo not shown) [Compound 136, 3-(2-fluoro-3-methoxy-4-(3-methyl-3-((5-(4-(trifluoromethoxy)phenyl)-1,3,4-oxadiazol-2-yl)amino)azetidin-1-yl)phenyl)piperidine-2,6-dione], the Ki at CRBN-DDB1 is not above 100 nM. The compound also came in with a Dmax on CDK2 (HEK293, HEK293 clonal line) of 50 to 80%.

The record behind these values is patent publication US20250263395A1, “COMPOUNDS THAT MEDIATE PROTEIN DEGRADATION AND METHODS OF USE THEREOF” (Monte Rosa Therapeutics AG, priority 2022, published 2025).
